Results: the supplement of paper PMC10307832

What was measured:
Experiment in all cases: relative viability (nuclei count vs DMSO), 5 days (fraction); higher = more cells survive
[1] = compound: C1CNCCC1C2=CC(=NN2)C3=CC=NC=C3 + Cc1nc(Nc2ncc(C(=O)Nc3c(C)cccc3Cl)s2)cc(N2CCN(CCO)CC2)n1 [Dasatinib] (partner 0.075 µM)
Procedure, shortened: (§1)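 Medians of duplicate plates are given as relative viability. That measure is the nuclei count in treated wells divided by the count in vehicle wells. Counts were taken on 4× images of lung cancer cell lines in 1536-well plates, 5 days after pin-tool dosing the day after seeding with one drug alone or a fixed anchor-drug dose plus five library-drug doses (not always all listed) in √10 steps.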

[2] = compound: C[C@@H](N)c1ccc(C(=O)Nc2ccnc3[nH]ccc23)cc1 + CS(=O)(=O)N1CCN(Cc2cc3nc(-c4cccc5[nH]ncc45)nc(N4CCOCC4)c3s2)CC1 [Pictilisib] (partner 1 µM)
Procedure, shortened: as §1

Tanzisertib + Luminespib = compound: O[C@H]1CC[C@H](Nc2ncc3nc(Nc4c(F)cc(F)cc4F)n([C@H]4CCOC4)c3n2)CC1 [Tanzisertib] + CCNC(=O)c1noc(-c2cc(C(C)C)c(O)cc2O)c1-c1ccc(CN2CCOCC2)cc1 [Luminespib] (partner 0.01 µM)
Procedure, shortened: as §1

Tanzisertib + Lapatinib = compound: O[C@H]1CC[C@H](Nc2ncc3nc(Nc4c(F)cc(F)cc4F)n([C@H]4CCOC4)c3n2)CC1 [Tanzisertib] + CS(=O)(=O)CCNCc1ccc(-c2ccc3ncnc(Nc4ccc(OCc5cccc(F)c5)c(Cl)c4)c3c2)o1 [Lapatinib] (partner 2 µM)
Procedure, shortened: as §1

Row | Cell Line | relative viability ([1]; first compound 0.08 µM) | relative viability ([1]; first compound 2.53 µM) | relative viability ([1]; first compound 8 µM) | relative viability ([2]; first compound 0.04 µM) | relative viability ([2]; first compound 0.1265 µM) | relative viability ([2]; first compound 0.4 µM) | relative viability ([2]; first compound 1.265 µM) | relative viability ([2]; first compound 4 µM) | relative viability (Tanzisertib + Luminespib; first compound 0.08 µM) | relative viability (Tanzisertib + Luminespib; first compound 0.253 µM) | relative viability (Tanzisertib + Luminespib; first compound 0.8 µM) | relative viability (Tanzisertib + Luminespib; first compound 2.53 µM) | relative viability (Tanzisertib + Luminespib; first compound 8 µM) | relative viability (Tanzisertib + Lapatinib; first compound 0.08 µM) | relative viability (Tanzisertib + Lapatinib; first compound 0.253 µM) | relative viability (Tanzisertib + Lapatinib; first compound 0.8 µM) | relative viability (Tanzisertib + Lapatinib; first compound 2.53 µM) | relative viability (Tanzisertib + Lapatinib; first compound 8 µM) | relative viability ([1]; first compound 0.8 µM)
1 | NCI-H2085 | 0.244 | 0.296 | 0.215 | 0.6 | 0.63 | 0.581 | 0.704 | 0.606 | 0.525 | 0.406 | 0.443 | 0.459 | 0.457 | 0.794 | 0.726 | 0.818 | 0.83 | 0.755 | 
2 | NCI-H460 | 0.387 | 0.537 | 0.529 | 0.467 | 0.252 | 0.489 | 0.0436 | 0.372 | 0.0366 | 0.0372 | 0.0359 | 0.0394 | 0.0394 | 0.968 | 0.959 | 0.949 | 0.952 | 1.05 | 0.454
3 | Calu-6 |  |  |  | 0.952 | 0.988 | 0.854 | 0.928 | 0.75 |  |  |  |  |  | 1.14 | 1.11 | 1.07 | 1.05 | 1 | 
4 | RERF-LC-KJ | 0.795 | 0.893 | 0.778 | 0.575 | 0.541 | 0.558 | 0.585 | 0.492 | 1.29 | 1.17 | 1.29 | 1.16 | 1.22 | 0.872 | 0.873 | 0.884 | 0.8 | 0.892 | 0.934
5 | LCLC-103H | 0.462 | 0.396 | 0.537 | 0.756 | 0.616 | 0.54 | 0.482 | 0.584 | 1 | 0.888 | 0.941 | 1.05 | 1.12 |  |  |  |  |  | 0.505
6 | HCC-15 | 0.556 | 0.639 | 0.609 | 0.821 | 0.705 | 0.796 |  | 0.731 | 0.504 | 0.193 | 0.357 | 0.406 | 0.453 | 0.974 | 0.854 | 0.888 | 0.916 | 0.659 | 0.646
7 | H3255 | 0.352 | 0.369 | 0.488 | 0.496 | 0.576 | 0.608 | 0.581 | 0.515 | 0.818 | 0.929 | 1.02 | 0.846 | 0.773 | 0.231 | 0.29 | 0.256 | 0.256 | 0.205 | 0.378
8 | NCI-H1792 | 0.774 | 0.781 | 0.854 | 0.368 | 0.273 | 0.38 | 0.349 | 0.288 | 0.413 | 0.402 | 0.447 | 0.448 | 0.344 | 1.01 | 0.967 | 0.867 | 0.825 | 0.798 | 0.836
9 | NCI-H1563 | 0.451 | 0.486 | 0.485 | 0.691 | 0.661 | 0.638 | 0.578 | 0.688 | 0.485 | 0.498 | 0.524 | 0.484 | 0.446 | 0.973 | 0.947 | 0.967 | 1.06 | 1.01 | 0.465
10 | NCI-H596 | 0.602 | 0.654 | 0.664 | 0.435 | 0.44 | 0.408 | 0.416 | 0.319 | 1.1 | 1.16 | 1.22 | 0.96 | 0.892 | 1.18 | 1.15 | 1.04 | 1.09 | 0.985 | 0.562
11 | NCI-H2087 | 0.662 | 0.75 | 0.84 | 1.04 | 0.78 | 0.908 | 0.153 | 0.797 | 0.182 | 0.2 | 0.166 | 0.21 | 0.168 | 1.19 | 1.08 | 1.2 | 1.07 | 0.974 | 1.02
12 | NCI-H661 | 0.896 | 1.05 | 0.817 | 0.433 | 0.54 | 0.454 | 0.351 | 0.509 | 0.903 | 0.943 | 0.902 | 0.952 | 0.955 | 0.596 | 0.431 | 0.505 | 0.511 | 0.449 | 0.839
13 | NCI-H522 | 0.841 | 0.896 | 0.967 |  |  |  |  |  | 1.38 | 1.27 | 0.966 | 1.16 | 1.17 |  |  |  |  |  | 0.869
14 | HCC-44 |  |  |  | 0.789 | 0.508 | 0.656 | 0.571 | 0.482 | 1.14 | 1.12 | 1.09 | 1.07 | 1.13 | 1.07 | 1.16 | 1.12 | 1.1 | 1.25 | 
15 | NCI-H441 | 0.465 | 0.797 | 0.576 | 0.549 | 0.569 | 0.553 | 0.4 | 0.458 | 0.312 | 0.338 | 0.29 | 0.279 | 0.314 |  |  |  |  |  | 0.673
16 | NCI-H1299 |  |  |  | 0.874 | 0.921 | 0.973 | 0.892 | 0.678 |  |  |  |  |  | 1.01 | 0.982 | 0.989 | 1.05 | 1.11 | 
17 | HCC-78 | 0.352 | 0.356 | 0.369 | 0.509 | 0.318 | 0.297 | 0.137 | 0.254 |  |  |  |  |  | 0.72 | 0.7 | 0.827 | 0.786 | 0.303 | 0.257
18 | ChaGo-K-1 | 0.58 | 0.643 | 0.627 | 0.777 | 0.937 | 0.988 |  | 0.696 | 0.573 | 0.406 | 0.552 | 0.589 | 0.648 |  |  |  |  |  | 0.657
19 | EBC-1 |  |  |  | 0.38 | 0.408 | 0.347 | 0.473 | 0.593 |  |  |  |  |  | 0.216 | 0.213 | 0.204 | 0.189 | 0.178 | 
20 | IA-LM |  |  |  | 0.456 | 0.484 | 0.752 | 0.676 | 0.835 |  |  |  |  |  | 0.855 | 0.732 |  | 1.03 | 1.03 | 
21 | NCI-H1703 |  |  |  | 0.235 | 0.247 | 0.205 | 0.234 | 0.197 |  |  |  |  |  | 1.29 | 1.08 | 1.09 | 1.11 | 0.942 | 
